Assay results reported in patent US8569291B2, “Bicyclic dihydroimidazolone CGRP receptor antagonists” (Merck Sharp & Dohme Corp., priority 2008, dated 2013).

Target: recombinant human CL receptor/RAMP1 (Homo sapiens (Human), UniProt O60894+Q16602)
Assay: recombinant receptor binding assay (125I-hCGRP displacement)
Conditions: membranes of HEK 293 cells expressing human CL receptor/RAMP1, 10 pM 125I-hCGRP
Description: RECOMBINANT RECEPTOR: Human CL receptor (Genbank accession number L76380) was subcloned into the expression vector pIREShyg2 (BD Biosciences Clontech) as a 5′NheI and 3′ PmeI fragment. Human RAMP1 (Genbank accession number AJ001014) was subcloned into the expression vector pIRESpuro2 (BD Biosciences Clontech) as a 5′NheI and 3′NotI fragment. HEK 293 cells (human embryonic kidney cells; ATCC #CRL-1573) were cultured in DMEM with 4.5 g/L glucose, 1 mM sodium pyruvate and 2 mM glutamine supplemented with 10% fetal bovine serum (FBS), 100 units/mL penicillin and 100 μg/mL streptomycin, and maintained at 37° C. and 95% humidity. Cells were subcultured by treatment with 0.25% trypsin with 0.1% EDTA in HBSS. Stable cell line generation was accomplished by co-transfecting 10 μg of DNA with 30 ug Lipofectamine 2000 (Invitrogen) in 75 cm^2 flasks. CL receptor and RAMP1 expression constructs were co-transfected in equal amounts. Twenty-four hours after transfection the cells were diluted and selective medium (growth medium+300 μg/mL hygromycin and 1 μg/mL puromycin) was added the following day. A clonal cell line was generated by single cell deposition utilizing a FACS Vantage SE (Becton Dickinson). Growth medium was adjusted to 150 μg/mL hygromycin and 0.5 μg/mL puromycin for cell propagation.
RECOMBINANT RECEPTOR BINDING ASSAY: Cells expressing recombinant human CL receptor/RAMP1 were washed with PBS and harvested in harvest buffer containing 50 mM HEPES, 1 mM EDTA and Complete protease inhibitors (Roche). The cell suspension was disrupted with a laboratory homogenizer and centrifuged at 48,000 g to isolate membranes. The pellets were resuspended in harvest buffer plus 250 mM sucrose and stored at—70° C. For binding assays, 20 μg of membranes were incubated in 1 ml binding buffer (10 mM HEPES, pH 7.4, 5 mM MgCl2, and 0.2% BSA) for 3 hours at room temperature containing 10 pM ^125I-hCGRP (GE Healthcare) and antagonist. The assay was terminated by filtration through 96-well GFB glass fiber filter plates (PerkinElmer) that had been blocked with 0.05% polyethyleneimine. The filters were washed 3 times with ice-cold assay buffer (10 mM HEPES, pH 7.4 and 5 mM MgCl2). Scintillation fluid was added and the plates were counted on a Topcount (Packard). Non-specific binding was determined and the data analysis was carried out with the apparent dissociation constant (Ki) determined by using a non-linear least squares fitting the bound CPM data to the equation below:
[formula] Where Y is observed CPM bound, Ymax is total bound counts, Ymin is non specific bound counts, (Ymax−Ymin) is specific bound counts, % Imax is the maximum percent inhibition, % I min is the minimum percent inhibition, radiolabel is the probe, and the Kd is the apparent dissociation constant for the radioligand for the receptor as determined by Hot saturation experiments.

Sequence of recombinant human CL receptor/RAMP1 (Q16602 23-461): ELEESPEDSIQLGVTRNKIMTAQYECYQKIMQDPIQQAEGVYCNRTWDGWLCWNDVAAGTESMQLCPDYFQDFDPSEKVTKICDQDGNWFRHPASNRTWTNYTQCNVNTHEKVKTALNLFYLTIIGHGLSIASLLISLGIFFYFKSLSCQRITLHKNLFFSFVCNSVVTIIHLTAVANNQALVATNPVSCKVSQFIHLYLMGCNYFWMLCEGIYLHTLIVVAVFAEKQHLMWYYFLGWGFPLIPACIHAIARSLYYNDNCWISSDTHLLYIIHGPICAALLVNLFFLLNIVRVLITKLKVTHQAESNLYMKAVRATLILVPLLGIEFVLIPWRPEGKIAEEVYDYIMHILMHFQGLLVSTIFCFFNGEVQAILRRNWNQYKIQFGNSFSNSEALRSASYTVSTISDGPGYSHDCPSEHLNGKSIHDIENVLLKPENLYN
Sequence of recombinant human CL receptor/RAMP1 (O60894 27-148): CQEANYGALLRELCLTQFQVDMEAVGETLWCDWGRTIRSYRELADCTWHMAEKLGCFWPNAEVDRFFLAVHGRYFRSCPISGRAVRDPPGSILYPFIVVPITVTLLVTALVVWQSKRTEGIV

Structure (SMILES) | Ki
O=C(Cn1c(=O)n(-c2nccs2)c2ccccc21)Nc1ccc2c(c1)CC1(C2)N=C(c2ccccc2)NC1=O (racemic) [Example 1, (±)-N-(5-oxo-2-phenyl-1,1′,3′,5-tetrahydrospiro[imidazole-4,2′-inden]-5′-yl)-2-[2-oxo-3-(1,3-thiazol-2-yl)-2,3-dihydro-1H-benzimidazol-1-yl]acetamide] | 25 nM
O=C(Cn1c(=O)n(-c2ccccn2)c2ccccc21)Nc1ccc2c(c1)CC1(C2)N=C(c2ccccn2)NC1=O (racemic) [Example 2, (±)-2-(2-oxo-3-pyridin-2-yl-2,3-dihydro-1H-benzimidazol-1-yl)-N-(5-oxo-2-pyridin-2-yl-1,1′,3′,5-tetrahydrospiro[imidazole-4,2′-inden]-5′-yl)acetamide] | 570 nM
O=C(CN1C(=O)C2(CCCC2)NC[C@H]1c1cc(F)cc(F)c1)Nc1ccc2c(c1)CC1(C2)N=C(c2ccccc2)NC1=O (single isomer, unassigned) [Example 11] | 0.21 nM
O=C(CN1C(=O)C2(CCCC2)NC[C@H]1c1cc(F)cc(F)c1)Nc1ccc2c(c1)CC1(C2)N=C(c2ccccc2)NC1=O (single isomer, unassigned) [Example 12] | 29 nM
O=C(Cn1c(=O)n(-c2ccccn2)c2ccccc21)Nc1ccc2c(c1)CC1(C2)N=C(C2CC2)NC1=O (centres unmarked) [Example 3] | 2600 nM
CCCC1=NC2(Cc3ccc(NC(=O)Cn4c(=O)n(-c5ccccn5)c5ccccc54)cc3C2)C(=O)N1 (centres unmarked) [Example 4] | 6400 nM
O=C(Cn1c(=O)n(-c2ccccn2)c2ccccc21)Nc1ccc2c(c1)CC1(C2)N=C(c2cnccn2)NC1=O (centres unmarked) [Example 6] | 630 nM
O=C(Cn1c(=O)n(-c2ccccn2)c2ccccc21)Nc1ccc2c(c1)CC1(C2)N=C(c2ccccc2)NC1=O (centres unmarked) [Example 7] | 35 nM
O=C(Cn1c(=O)n(-c2ccccn2)c2ccccc21)Nc1ccc2c(c1)CC1(C2)N=C(c2cccnc2)NC1=O (centres unmarked) [Example 8] | 130 nM
O=C(Cn1c(=O)n(-c2ccccn2)c2ccccc21)Nc1ccc2c(c1)CC1(C2)N=C(c2ccncc2)NC1=O (centres unmarked) [Example 9] | 160 nM
C[C@@]1(c2cc(F)cc(F)c2)CNC2(CCCC2)C(=O)N1CC(=O)Nc1ccc2c(c1)CC1(C2)N=C(c2ccccc2)NC1=O (some centres unmarked) [Example 13] | 1.6 nM
